These results are taken from patent US20100331368A1, “2,5-DIARYL SELENOPHENE COMPOUNDS, AZA 2,5-DIARYL THIOPHENE COMPOUNDS, AND THEIR PRODRUGS AS ANTIPROTOZOAL AGENTS” (priority 2007, published 2010).

Counter-ions that a name gives are not always drawn. Like-named read-outs stand apart in the source and are kept apart here.

For data set [1], the system named is Leishmania donovani (L. d.). Kind of data set: In vitro assay against Leishmania donovani. In kind it is cell-based. The method, then: (§1) In vitro antiprotozoal activities were measured following established protocols. […] E., et al., Bioorg.
For data set [2], the system named is L-6 rat mycoblast cells. The data set is described as follows: Cell toxicity assay in L-6 cells.
In data set [3] the test system is Trypanosoma brucei rhodesiense (T. b. r.). The data set is described as follows: In vitro antiprotozoal activity against Trypanosoma brucei rhodesiense. In kind it is cell-based. The method, then:
as §1

Data set [4] relates to STIB 900 strain of Trypanosoma brucei rhodesiense. The data set is described as follows: In vivo activity against T. b. r. STIB 900 in a mouse model. The note with it: for Cures (number of mice that survive and are parasite free for 60 days) / Survival (average days of survival): mouse, days 3-6 post-infection; for Cures (number of mice that survive and are parasite free for 60 days): groups of four mice; for Survival (average days of survival): untreated controls expire between 7 and 8 days; for responders at 25 mg/kg / responders at 20 mg/kg / responders at 5 mg/kg: Trypanosoma brucei, 1440 h, read-out: Cures (number of mice that survive and are parasite free for 60 days). The method, then: The activities of compounds 4, 5, 6, 11, 12, 18, 20, 22, 27, 28, 30 and 33 against the STIB 900 strain of Trypanosoma brucei rhodesiense (T. b. r.) in a mouse model are shown in Table 2. […] Groups of four mice were infected intraperitoneally with 2×10^5 bloodstream forms of T. b. r. STIB 900 which originates from a patient in Tanzania. On days 3, 4, 5, and 6 post-infection the experimental groups were treated with the drugs either by the intraperitoneal or for prodrugs by the oral route. Usually the highest tolerated dose was used which was determined in a pretoxicological experiment. Parasitemia of the mice was checked daily up to day 14 post-infection and thereafter 2 times per week up to day 60. One group of mice was not treated and acted as control. For relapsing mice, the day of death was recorded and the survival time determined.

Data set [5] has as its system Plasmodium falciparum (P. f.). The data set is described as follows: In vitro antiprotozoal activity against Plasmodium falciparum. The class given is cell-based. The method, then: as §1
Data set [6] relates to L-6 rat mycoblast cells.
Where [7] appears, read: in vitro, read-out: T.b.r. IC50.
Where [8] appears, read: Leishmania donovani, in vitro, read-out: L.d. C50.
Where [9] appears, read: Plasmodium falciparum, in vitro, read-out: IC50 values versus P.f.
Setting [10] is: Plasmodium falciparum, in vitro, read-out: P.f. IC50.
The mark [11] stands for this setting: Trypanosoma brucei, RHODESIENSE, in vitro, read-out: T.b.r. IC50.
The mark [12] stands for this setting: Leishmania donovani, in vitro, read-out: IC50 values versus L.d.
The mark [13] stands for this setting: Trypanosoma brucei, RHODESIENSE, in vitro, read-out: IC50 values versus T.b.r.

`N=C(N)c1ccc(-c2ccc(-c3ccc(C(=N)N)cc3)o2)cc1` [Furamidine, reference compound]: the IC50 in data set [1] (in vitro, read-out: L.d. C50) was 2700 nM. For the same compound, in data set [2], the Cytotoxocity turned out to be 6.4 µM. Besides, in data set [3] (setting [7]), the IC50 was 4.3 nM. Further, in data set [4] (ip, 10 mg/kg), the “Cures (number of mice that survive and are parasite free for 60 days)” value is reported as 0/4; the “Survival (average days of survival)” value turned out to be 44.5 days.

`NC(=NO)c1ccc(-c2ccc(-c3ccc(C(N)=NO)cn3)[se]2)nc1` [Compound 28, 2,5-Bis-[2-{5-(N-hydroxyamidino)-pyridyl}]selenophene dihydrochloride]: the responders at 25 mg/kg in data set [4] (po) amounted to 0%. In addition, the “Survival (average days of survival)” value in data set [4] (po, 25 mg/kg) was determined as 20 days.

With `Cl.Cl.N=C(N)c1ccc(-c2ccc(-c3ccc(C(=N)N)nc3)s2)cn1` [Compound 33, 2,5-Bis-[5-(2-amidino-pyridyl)]thiophene dihydrochloride], the IC50 in data set [5] (in vitro, read-out: P.f. IC50) stood at 3 nM; in data set [1] (in vitro, read-out: L.d. C50) it was 127 nM; in data set [3] (setting [7]), 4 nM. Also, in data set [4] (ip, 5 mg/kg), the “Cures (number of mice that survive and are parasite free for 60 days)” value is listed as 1/4. For the same compound, the “Survival (average days of survival)” value in data set [4] (ip, 5 mg/kg) was 42.5 days. The same compound yielded a Cytotoxocity in data set [6] of 4.8 µM.

As for `N=C(N)c1ccc(OCCCCCOc2ccc(C(=N)N)cc2)cc1` [Pentamidine, reference compound], in data set [1] (setting [8]), the IC50 was 2000 nM. Moreover, in data set [4] (ip), the responders at 20 mg/kg came to 0%. In addition, the “Survival (average days of survival)” value in data set [4] (ip, 20 mg/kg) is recorded as 42.75 days.

With `Cl.Cl.N=C(N)c1ccc(-c2ccc(-c3ccc(C(=N)N)cn3)s2)nc1` [Compound 30, 2,5-Bis-[2-(5-amidino-pyridyl)]thiophene dihydrochloride], the IC50 in data set [5] (in vitro, read-out: P.f. IC50) was determined as 18 nM; in data set [1] (in vitro, read-out: L.d. C50), 23300 nM; in data set [3] (setting [7]), 68 nM. In addition, the “Cures (number of mice that survive and are parasite free for 60 days)” value in data set [4] (ip, 5 mg/kg) is recorded as 1/4. Besides, in data set [4] (ip, 5 mg/kg), the “Survival (average days of survival)” value turned out to be 50.25 days. The compound also displayed a Cytotoxocity in data set [6] of more than 222 µM.

Regarding `N/C(=N\O)c1ccc(-c2ccc(-c3ccc(/C(N)=N/O)cn3)[se]2)cc1` [Compound 12], in data set [4] (po), the responders at 25 mg/kg worked out at 0%. The “Survival (average days of survival)” value in data set [4] (po, 25 mg/kg) came to 26 days.

Turning to `N=C(N)c1ccc(-c2ccc(-c3ccc(C(=N)N)cn3)[se]2)nc1` [Compound 27, 2,5-Bis-[2-(5-amidino-pyridyl)]selenophene dihydrochloride], the IC50 in data set [5] (setting [9]) is not above 14 nM; in data set [5] (setting [10]), 10 nM; in data set [1] (setting [8]), 5600 nM; in data set [3] (setting [11]), 50 nM. Further, the Cytotoxocity in data set [2] was 158.3 µM. The responders at 5 mg/kg in data set [4] (ip) was 100%. The “Survival (average days of survival)” value in data set [4] (ip, 5 mg/kg) is listed as 60 days.

On to `Cl.Cl.N=C(NO)c1ccc(-c2ccc(-c3ccc(C(=N)NO)cc3)[se]2)cc1` [Compound 5, 2,5-Bis[4-(N-hydroxyamidino)phenyl]selenophene Dihydrochloride], for which the responders at 25 mg/kg in data set [4] (po) came out at 0%. The “Survival (average days of survival)” value in data set [4] (po, 25 mg/kg) worked out at 11.5 days.

For `N=C(N)c1ccc(-c2ccc(-c3ccc(C(=N)N)cn3)[se]2)cc1` [Compound 11, 6-[5-(4-Amidinophenyl)-selenophen-2-yl]-nicotinamidine], the IC50 in data set [5] (setting [9]) was not above 14 nM; in data set [5] (setting [10]) it was 10 nM; in data set [1] (setting [12]), 1600 nM; in data set [1] (setting [8]), 1600 nM; in data set [3] (setting [13]), not above 26 nM; in data set [3] (setting [11]), 9 nM. In data set [2], this compound came in with a Cytotoxocity of 27.7 µM. Also, the responders at 5 mg/kg in data set [4] (ip) was 100%. The “Survival (average days of survival)” value in data set [4] (ip, 5 mg/kg) is recorded as 60 days.

As for `N=C(N)c1ccc(-c2ccc(-c3ccc(C(=N)N)nc3)[se]2)cn1` [Compound 22, 2,5-Bis-[5-(2-amidino-pyridyl)]selenophene dihydrochloride], the IC50 in data set [5] (setting [9]) is not above 14 nM; in data set [5] (setting [10]), 4 nM; in data set [1] (setting [12]), less than 200 nM; in data set [1] (setting [8]), 53 nM; in data set [3] (setting [13]) it was not above 26 nM; in data set [3] (setting [11]), 2 nM. Further, the Cytotoxocity in data set [2] was determined as 5.6 µM. For the same compound, the responders at 5 mg/kg in data set [4] (ip) is 100%. In data set [4] (ip, 5 mg/kg), the “Survival (average days of survival)” value is listed as 60 days.

Consider `CONC(=N)c1ccc(-c2ccc(-c3ccc(C(=N)NOC)cc3)[se]2)cc1.Cl.Cl` [Compound 6, 2,5-Bis[4-(N-methoxyamidino)phenyl]selenophene Dihydrochloride], for which the responders at 25 mg/kg in data set [4] (po) is 0%. Further, the “Survival (average days of survival)” value in data set [4] (po, 25 mg/kg) is reported as 15.25 days.

For the compound `Cl.Cl.N=C(N)c1ccc(-c2ccc(-c3ccc(C(=N)N)cc3)[se]2)cc1` [Compound 4, 2,5-Bis(4-amidinophenyl)selenophene Dihydrochloride], the IC50 in data set [5] (Plasmodium falciparum, read-out: IC50 values versus P.f.) was not above 14 nM; in data set [5] (Plasmodium falciparum, read-out: P.f. IC50), 2 nM; in data set [1] (Leishmania donovani, read-out: IC50 values versus L.d.), less than 200 nM; in data set [1] (Leishmania donovani, read-out: L.d. C50) it was 170 nM; in data set [3] (Trypanosoma brucei, RHODESIENSE, read-out: IC50 values versus T.b.r.), not above 26 nM; in data set [3] (Trypanosoma brucei, RHODESIENSE, read-out: T.b.r. IC50), 2 nM. The compound also came in with a Cytotoxocity in data set [2] of 9.7 µM. Besides, the responders at 20 mg/kg in data set [4] (ip) is 50%. In data set [4] (ip, 20 mg/kg), the “Survival (average days of survival)” value amounted to 55.5 days.

Take `CO/N=C(\N)c1ccc(-c2ccc(-c3ccc(/C(N)=N/OC)nc3)[se]2)cc1` [Compound 20, 5-{5-[4-(N-Methoxyamidino)-phenyl]-selenophen-2-yl}-pyridine-2-N-methoxyamidine]: the responders at 25 mg/kg in data set [4] (po) is 25%. For the same compound, in data set [4] (po, 25 mg/kg), the “Survival (average days of survival)” value worked out at 36.5 days.

On to `N=C(N)c1ccc(-c2ccc(-c3ccc(C(=N)N)nc3)[se]2)cc1` [Compound 18, 5-[5-(4-Amidinophenyl)-selenophen-2-yl]-pyridine-2-amidine], for which the IC50 in data set [5] (setting [9]) is not above 14 nM; in data set [5] (setting [10]), 14 nM; in data set [1] (setting [12]) it was less than 200 nM; in data set [1] (setting [8]), 130 nM; in data set [3] (setting [13]), not above 26 nM; in data set [3] (setting [11]), 26 nM. The compound further gave a Cytotoxocity in data set [2] of 13.4 µM. The responders at 5 mg/kg in data set [4] (ip) is 100%. Further, in data set [4] (ip, 5 mg/kg), the “Survival (average days of survival)” value stood at 60 days.
